The nature of this series: Oxidative stress, Example 29 (α-hANP, hydrogen peroxide, HPLC). It counts as physicochemical. The conditions noted are these: 0.1 mg/mL, solution E pH 4.8, 0.2% hydrogen peroxide, 37° C., one hour. How it is done: A gel preparation 29-48 of formulation 48 containing 0.1 mg/mL of α-hANP was prepared in an amount of 500 μL in a microtube, in the same manner as in the preparing method in (1) of Example 2, while using a solution E (pH 4.8) containing 37.5 mg/mL of D-mannitol and 5 mg/mL of glycine, in place of the solution A. Then, 50 μL of 0.2% hydrogen peroxide was added to the gel preparation, followed by incubation at 37° C. for one hour. Immediately after the incubation, 200 μL of 0.4 M methionine and 250 μL of water were added to the sample, and the gel preparation was disintegrated by a microspatula. The sample was then centrifuged, the supernatant was filtered through a membrane filter to remove aggregates, and the amount of α-hANP contained in the solution was determined by the HPLC method. Note that this experiment was conducted with N=2, and the remaining rate of α-hANP was expressed based on the starting amount. Besides, as a control, an α-hANP solution prepared by dissolving α-hANP in the solution E so as to obtain a concentration of 0.1 mg/mL was subjected to the same process as above, exclusive of the disintegrating operation by the microspatula.

On to `CC[C@H](C)[C@@H]1NC(=O)[C@H](CCCNC(=N)N)NC(=O)[C@H](CC(=O)O)NC(=O)[C@H](CCSC)NC(=O)[C@H](CCCNC(=N)N)NC(=O)CNC(=O)CNC(=O)[C@H](Cc2ccccc2)NC(=O)[C@@H](NC(=O)[C@H](CO)NC(=O)[C@H](CO)NC(=O)[C@H](CCCNC(=N)N)NC(=O)[C@H](CCCNC(=N)N)NC(=O)[C@H](CC(C)C)NC(=O)[C@@H](N)CO)CSSC[C@@H](C(=O)N[C@@H](CC(N)=O)C(=O)N[C@@H](CO)C(=O)N[C@@H](Cc2ccccc2)C(=O)N[C@@H](CCCNC(=N)N)C(=O)N[C@@H](Cc2ccc(O)cc2)C(=O)O)NC(=O)CNC(=O)[C@H](CC(C)C)NC(=O)CNC(=O)[C@H](CO)NC(=O)[C@H](CCC(N)=O)NC(=O)[C@H](C)NC(=O)CNC1=O` [α-hANP solution, α-human atrial natriuretic polypeptide], for which the “Remaining rate of α-hANP after loaded with oxidative stress, run 1” value is 65.4% and the “Remaining rate of α-hANP after loaded with oxidative stress, run 2” value is 64.7%.

(Values after US20200261584A1, “STABILIZED PROTEIN GEL PREPARATION” (TERUMO KABUSHIKI KAISHA, priority 2013, published 2020).)
